The values below are quoted from earlier work in patent publication US20180153872A1, “HETEROARYL CARBONITRILES FOR THE TREATMENT OF DISEASE” (OPKO Health, Inc., priority 2015, published 2018).

One series deals with NK1 receptor (Homo sapiens, UniProt P25103). The conditions noted are these: Table I compounds; cited from earlier work.
For a further series, the system named is pruritus. The note with it: several patients with pruritic drug reactions to antineoplastic drugs; cited from earlier work.

Sequence of NK1 receptor (P25103 whole entry, species assumed): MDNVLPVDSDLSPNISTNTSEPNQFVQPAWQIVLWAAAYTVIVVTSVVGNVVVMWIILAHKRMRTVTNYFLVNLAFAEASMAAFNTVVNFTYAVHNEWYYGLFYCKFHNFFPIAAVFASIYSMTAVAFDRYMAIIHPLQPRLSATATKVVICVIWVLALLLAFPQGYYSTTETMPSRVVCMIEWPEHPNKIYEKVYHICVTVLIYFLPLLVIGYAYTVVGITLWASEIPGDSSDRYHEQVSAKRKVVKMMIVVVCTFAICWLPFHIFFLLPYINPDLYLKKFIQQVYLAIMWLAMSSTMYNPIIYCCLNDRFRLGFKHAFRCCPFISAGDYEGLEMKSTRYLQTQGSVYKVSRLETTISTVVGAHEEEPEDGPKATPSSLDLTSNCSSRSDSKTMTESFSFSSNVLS

What is called Ki is the dissociation constant of the complex between target and ligand, obtained from inhibition or displacement. Regarding `C[C@@H](OC[C@@]1(c2ccccc2)CCC(C#N)(N2CCOC2=O)CN1)c1cc(C(F)(F)F)cc(C(F)(F)F)c1` (stereo partly drawn) [Compound 2], the Ki at NK1 receptor is 0.12 nM.

Consider `C[C@@H](OC[C@@]1(c2ccccc2)CCC(C#N)(N2CCC2=O)CN1)c1cc(C(F)(F)F)cc(C(F)(F)F)c1` (stereo partly drawn) [Compound 9], for which, on NK1 receptor, the Ki is 0.18 nM.

Take `C[C@@H](OC[C@@]1(c2ccccc2)CCC(C(N)=O)(n2cnnc2)CN1)c1cc(C(F)(F)F)cc(C(F)(F)F)c1` (stereo partly drawn) [Compound 10]: at NK1 receptor, the Ki was 0.1 nM.

Turning to `C[C@@H](OC[C@@]1(c2ccccc2)CCC(CO)(n2cnnc2)CN1)c1cc(C(F)(F)F)cc(C(F)(F)F)c1` (stereo partly drawn) [Compound 12], the Ki on NK1 receptor was 0.05 nM.

`C[C@@H](OC[C@@]1(c2ccccc2)CC[C@](CNS(C)(=O)=O)(n2cn[nH]c2=O)CN1)c1cc(C(F)(F)F)cc(C(F)(F)F)c1` [Compound 15]: on NK1 receptor, the Ki is 0.13 nM.

Take `CCC(=O)C1(n2cn[nH]c2=O)CC[C@@](CO[C@H](C)c2cc(C(F)(F)F)cc(C(F)(F)F)c2)(c2ccccc2)NC1` (stereo partly drawn) [Compound 19]: the Ki on NK1 receptor is 0.1 nM.

Take `C[C@@H](OC[C@@]1(c2ccccc2)CCC(CO)(n2cn[nH]c2=O)CN1)c1cc(C(F)(F)F)cc(C(F)(F)F)c1` (stereo partly drawn) [Compound 23]: the Ki on NK1 receptor was 0.12 nM.

Regarding `CC(=NO)C1(n2cn[nH]c2=O)CCC(COC(C)c2cc(C(F)(F)F)cc(C(F)(F)F)c2)(c2ccccc2)NC1` (stereo not drawn) [Compound 54], the Ki at NK1 receptor was 0.12 nM.

`C[C@@H](O[C@H]1OCCN(Cc2n[nH]c(=O)[nH]2)[C@H]1c1ccc(F)cc1)c1cc(C(F)(F)F)cc(C(F)(F)F)c1` [aprepitant]: in the series on pruritus, the “pruritus on the visual analogue scale (VAS)” value is listed as “decrease in pruritus on the visual analogue scale”.
